Laboratory results as given in patent publication US11464859B2 (priority 2005, dated 2022).
“Also recorded” adds a separate entry of the source.

Tests used:
[1] = system: acute promyelocytic leukaemia; settings: cited from earlier work; for efficacy and side effects compared with intravenous arsenic trioxide: oral, pilot study, patients with acute promyelocytic leukaemia, preliminary results
[2] = system: many different cancer cell lines; settings: cited from earlier work
[3] = cited from earlier work
[4] = system: human tumour xenografts (renal cell carcinoma RXF 944LX, mammary cancer MAXF 401)
[5] = system: telomeres of human cancer cells; assay type: cell-based; settings: sodium salt
telomerase = telomerase (Homo sapiens, UniProt O14746); assay type: biochemical; settings: sodium salt
[6] = system: prostate and/or urogenital cancer and bone metastasis; settings: human, in vivo
[7] = system: panel of 43 human tumour cell lines
[8] = in vivo
[9] = in vivo; remark: listed apart in the source
[10] = human, in vivo

Chain of telomerase (O14746 whole entry): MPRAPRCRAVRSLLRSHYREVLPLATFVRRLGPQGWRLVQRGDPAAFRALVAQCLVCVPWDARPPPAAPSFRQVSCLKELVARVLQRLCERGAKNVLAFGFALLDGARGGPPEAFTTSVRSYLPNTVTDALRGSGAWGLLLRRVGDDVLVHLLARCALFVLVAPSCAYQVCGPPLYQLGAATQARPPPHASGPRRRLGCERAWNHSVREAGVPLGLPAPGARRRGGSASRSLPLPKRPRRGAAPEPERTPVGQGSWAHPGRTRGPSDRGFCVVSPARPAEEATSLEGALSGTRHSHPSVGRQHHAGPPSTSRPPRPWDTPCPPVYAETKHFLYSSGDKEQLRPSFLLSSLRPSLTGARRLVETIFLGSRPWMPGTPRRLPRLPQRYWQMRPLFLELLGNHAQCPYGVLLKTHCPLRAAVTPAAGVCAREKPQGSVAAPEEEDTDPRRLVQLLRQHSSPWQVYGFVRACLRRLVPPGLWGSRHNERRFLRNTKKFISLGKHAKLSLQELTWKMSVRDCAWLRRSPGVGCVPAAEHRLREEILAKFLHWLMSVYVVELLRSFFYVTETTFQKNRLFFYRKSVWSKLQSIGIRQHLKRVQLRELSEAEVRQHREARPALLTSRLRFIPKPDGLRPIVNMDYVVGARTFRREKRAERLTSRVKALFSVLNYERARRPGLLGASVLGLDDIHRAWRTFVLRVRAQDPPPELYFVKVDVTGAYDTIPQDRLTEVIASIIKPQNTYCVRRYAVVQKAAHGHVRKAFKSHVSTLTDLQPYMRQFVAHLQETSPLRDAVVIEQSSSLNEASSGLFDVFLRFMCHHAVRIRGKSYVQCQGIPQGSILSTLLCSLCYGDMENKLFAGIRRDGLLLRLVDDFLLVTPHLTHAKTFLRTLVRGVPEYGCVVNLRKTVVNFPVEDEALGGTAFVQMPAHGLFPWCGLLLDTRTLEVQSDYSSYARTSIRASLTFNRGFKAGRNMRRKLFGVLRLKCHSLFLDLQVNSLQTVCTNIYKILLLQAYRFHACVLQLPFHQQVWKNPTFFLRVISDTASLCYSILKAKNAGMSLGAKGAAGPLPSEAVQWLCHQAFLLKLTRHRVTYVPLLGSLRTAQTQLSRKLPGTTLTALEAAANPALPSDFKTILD

S1[As]2S[As]3S[As]2S[As]13 [tetra-arsenic tetrasulphide]
efficacy and side effects compared with intravenous arsenic trioxide [1]: The same was noted

arsenic trioxide
clinical response ([1]; daily intravenous administration alone, newly diagnosed and relapsed acute promyelocytic leukaemia): complete responses in a large majority of patients
efficacy and side effects compared with intravenous arsenic trioxide [1]: comparable
effect on growth and apoptosis [2]: inhibits growth and promotes apoptosis
incidence of the listed adverse events (fatigue, fever, oedema, chest pain, nausea, ECG abnormalities etc.) ([3]; patients treated with arsenic trioxide): ≥ 10 % of patients
effect on QT interval ([3]; patients): prolong the QT and QT interval corrected for rate (QTc)

arsenous acid sodium salt
anti-tumour activity in a human tumour model in vivo [4]: showed anti-tumour activity
activity in subcutaneously transplanted human tumour xenografts ([4]; in vivo): borderline active in 2/7
efficacy by schedule ([4]; in vivo): better
effect on telomeres [5]: capable of shortening the telomeres of human cancer cells; also recorded: capable of shortening telomeres of human cancer cells, inducing cellular senescence and chromosomal abnormalities
inhibition of telomerase activity (telomerase): doesn't inhibit telomerase activity; also recorded: does not directly inhibit the telomerase activity
PSA levels and tumour size, overall [6]: a reduction in their PSA levels and tumour size
change in PSA levels, judgement [6]: clinically significant change
clinical response, overall [6]: Most patients showed at least a partial response
decrease in tumour activity [6]: 99.15%
further reduction in tumour activity [6]: 67.56%
further tumour activity reduction [6]: 40.32%
quality of life [6]: strongly ameliorated
IC50 [7]: 600 nM
combination effect [7]: additive effects
potency among three arsenic compounds [7]: most potent
potency relative to arsenic trioxide [7]: at least 15 fold
absorption [8]: rapidly absorbed
persistence in plasma [8]: remained in the plasma for prolonged periods
bioavailability ([8]; po): approximately 100%
main target organs of toxicity [9]: bone marrow and lymphoid organs
change in ECG activity, audiometry or neurological examinations [10]: no change
disturbance of patients' well-being feeling [10]: did not cause any disturbance
glucose levels [10]: always appeared elevated
hemoglobin concentration at end [10]: 11.1
hemoglobin concentration at start [10]: 10.0
liver transaminases sGOT, sGPT and sGGT [10]: reversible increase
sGGT elevation [10]: worsened
sGGT elevation and thrombocytosis [10]: remained unchanged
sGPT [10]: reversible and slight increase
triglycerides and cholesterol level [10]: unchanged
occurrence of the adverse events known for arsenic trioxide ([10]; po): none of these adverse events have been observed
